Holding throughout (format): cell-based
For experiment [1], the target named is T1, Oxysterols receptor LXR-alpha (Homo sapiens) (UniProt Q13133).
T1 sequence (whole entry): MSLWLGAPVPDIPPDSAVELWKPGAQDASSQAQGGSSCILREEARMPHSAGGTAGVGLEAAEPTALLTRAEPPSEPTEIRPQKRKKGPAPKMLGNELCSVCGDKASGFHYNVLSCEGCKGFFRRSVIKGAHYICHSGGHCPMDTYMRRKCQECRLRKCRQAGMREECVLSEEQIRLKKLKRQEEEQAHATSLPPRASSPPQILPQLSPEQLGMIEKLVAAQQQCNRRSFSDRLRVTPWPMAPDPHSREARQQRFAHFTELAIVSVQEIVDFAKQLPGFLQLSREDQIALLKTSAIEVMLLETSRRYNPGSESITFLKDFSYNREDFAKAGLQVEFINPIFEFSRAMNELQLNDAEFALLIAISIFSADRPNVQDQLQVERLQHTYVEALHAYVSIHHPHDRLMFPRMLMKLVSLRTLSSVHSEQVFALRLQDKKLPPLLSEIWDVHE
Kind of experiment: Agonist activity at LXRalpha (unknown origin) transfected in mouse SN4741 cells at 10 uM after 24 hrs by luciferase reporter gene assay.

The test system of another experiment is SN4741. Kind of experiment: Agonist activity at LXR in mouse SN4741 cells assessed as upregulation of ABCA1 protein expression at 10 uM by immunoblot analysis. Background: A western blot detects proteins with antibodies after separation by electrophoresis.
For experiment [2], the target named is T2, Oxysterols receptor LXR-beta (Homo sapiens) (UniProt P55055).
T2 sequence (whole entry): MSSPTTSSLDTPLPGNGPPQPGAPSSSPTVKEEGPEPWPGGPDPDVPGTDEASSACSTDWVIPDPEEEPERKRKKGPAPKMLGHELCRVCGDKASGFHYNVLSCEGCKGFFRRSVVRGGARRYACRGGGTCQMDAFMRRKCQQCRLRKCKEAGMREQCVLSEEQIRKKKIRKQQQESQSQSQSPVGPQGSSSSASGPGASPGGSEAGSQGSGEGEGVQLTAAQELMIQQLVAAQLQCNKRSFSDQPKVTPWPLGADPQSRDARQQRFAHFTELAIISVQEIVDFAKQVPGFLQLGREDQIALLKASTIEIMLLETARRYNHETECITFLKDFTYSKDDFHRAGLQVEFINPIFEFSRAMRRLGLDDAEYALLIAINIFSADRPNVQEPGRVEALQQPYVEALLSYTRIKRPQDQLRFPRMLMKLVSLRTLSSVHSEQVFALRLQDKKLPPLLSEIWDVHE
Kind of experiment: Agonist activity at LXRbeta (unknown origin) transfected in mouse SN4741 cells at 10 uM after 24 hrs by luciferase reporter gene assay. (In a reporter assay the amount or activity of a reporter protein is the signal.)

SMILES strings stand for the structures. Calls of active or inactive are those of the source. The calls are words filed in the database; no cut-off is given here.

For the compound `C/C(=C/CC[C@@H](C)[C@H]1CC[C@H]2[C@@H]3CC=C4C[C@@H](O)CC[C@]4(C)[C@H]3CC[C@]12C)CO`, the result (in experiment [1]; in the experiment with SN4741; in experiment [2]) was inactive.
Turning to `C/C(=C\CC[C@@H](C)[C@H]1CC[C@H]2[C@@H]3CC=C4C[C@@H](O)CC[C@]4(C)[C@H]3CC[C@]12C)CO`, the outcome (in experiment [1]; in the experiment on SN4741; in experiment [2]) was inactive.
As to `CC(C)=CCC[C@@H](C)[C@H]1CC[C@H]2[C@@H]3CC=C4C[C@@H](O)CC[C@]4(C)[C@H]3CC[C@]12C`, the result (in experiment [1]; with SN4741; in experiment [2]) was Active.
